Assay [1] addresses glycogen synthatase kinase 3 beta (GSKB) (Homo sapiens, UniProt P49841). The assay is described as follows: GSK B kinase activity of compounds (FIG. 10). Particulars: 10 uM. Format: biochemical.
For assay [2], the system named is HEC-1B human adnocarcinoma. The assay is described as follows: Thymidine uptake anti-proliferation assay, HEC-1B. Conditions: 100 uM, versus DMSO and PBS controls; Dihydrochloride. In kind it is cell-based. As to the method: (§1) The antiproliferative effects of BA-1037 were tested by a thymidine uptake assay with several different human cancer cell lines grown in culture. The cell lines tested were HEC-1B human adnocarcinoma, SK-MEL-1 human malignant melanoma, and Caco-2 human colorectal adenocarcinoma. The cells were seeded in a 96 well plate and after 2 hours the cells were treated with test BA-1037 compound or with control solutions. The control solutions were PBS as a negative control, and with complete medium plus the DMSO vehicle (at 0.1% or 1%). BA-1037 was added at three different concentrations: 1 uM, 10, uM or 100 uM. Each control solution and test solution was plated in triplicate for each cell line. The plate was incubated at 37 C. with 5% CO2 in a humidified atmosphere for approximately 54 hours. A volume of 0.02 ml of 3H-methy thymidine which contained 1.0 uCi was added to each well. The culture was incubated a further 18 hours. Using an automated cell harvestor the cells from each well were aspirated onto a glass microfiber filter. The cells were broken with distilled water to leave mainly the DNA on the filter. Each filter was placed in a scintillation counter (TopCount NXT). At appropriate settings for the 3H, each filter was counted for one minute. The results are expressed as CPM (counts per minute).

Assay [3] concerns the target T1, human Rho kinase II (ROCK-II (h)) (Homo sapiens, UniProt O75116).
T1 construct: purchased
The assay is described as follows: Commercial inhibition assay with recombinant human ROCKII, IC50 curves (FIGS. 8, 9). In kind it is biochemical. The text has this: Referring to FIGS. 8 and 9 inhibiton of ROCKII activity and determination of IC50 may also be done throught the use of known (i.e. commercial) inhibition assays that use recombinant human ROCKII.

Assay [4] deals with NG108-15 neuronal cell line. The assay is described as follows: Rapid bioassay of neurite growth in NG108-15 cells. Format: cell-based. Particulars: 35 uM. How it is done: When neurons are placed on inhibitory substrates in tissue culture, the neurons remain rounded. When an effective Rho kinase inhibitor is added to the neurons, the neurons are able to grow neurites on myelin substrates. The time that it takes for neurons to grow neurites after the addition of a Rho kinase inhibitor is about the same as the time that it takes for neurons to grow neurites if the neurons had been plated on growth permissive substrate such as laminin or polylysine, which time is typically 1 to 2 days in cell culture. An assessment of resulting neurite growth can be scored by visual means. If needed, a quantitative assessment of neurite growth can be performed. This involves measuring after a time such as 1 to 2 days the neurite length a) in control cultures where neurons are plated on myelin substrates and left untreated with Rho kinase inhibitor for such time, b) in positive control cultures, wherein for example neurons are plated on polylysine but left untreated with Rho kinase inhibitor for such time, and c) in cultures analogous to a) and b) that are treated with different concentrations of a Rho kinase inhibitor for such time. […] In this assay, NG108 cells are plated on plastic in the presence or absence of the test substance (a Rho kinase inhibitor). […] The relative efficacy can be assessed by fixing the cultures 5 hours after plating, and counting the number of cells that have grown neurites.
A rapid bioassay is used to determine the effect of a test compounds on the stimulation of neurite growth in vitro. A neuronal cell line, NG108-15 (ATCC HB-12317), is maintained in culture in Dulbecco's minimal essential medium (DMEM) supplemented with 10% fetal bovine serum, Penicillin/Streptomycin and HAT supplement (Gibco/BRL). For the bioassay, the cells are collected by trypsinisation and ressuspended in DMEM supplemented with 5% FBS, Penicillin/Streptomycin, HAT supplement and 0.25 mg/ml cAMP, adjusted to 1.0×10^4 cells/ml. The cells are plated into wells of a 96 well plate at 100 μls (1000 cells)/well. Cells are incubated 4 h at 37° C. and 5% CO2 in presence of small molecules or cethrin at a concentration of 1000 cells per well of a 96-wells plate in a final volume of 100 ul.
After incubation, cells are fixed by adding […] 16% PFA and 5.4 μls 2.5% glutaraldehyde to the media in each well. The wells are stained with cresyl violet 0.05% , 100 μls/well for 15 min. Cells with neurites (length≧one cell body) are counted using an inverted light microscope. The % neurite outgrowth is determined by calculating the number of cells with neurites over the total number of counted cells.

Assay [5] relates to SK-MEL-1 human malignant melanoma. The assay is described as follows: Thymidine uptake anti-proliferation assay, SK-MEL-1. Format: cell-based. As to the method:
as §1

pIC50: −log10 of the molar value. “Also recorded” adds a separate entry of the source.

Sequence of glycogen synthatase kinase 3 beta (GSKB) (P49841 whole entry): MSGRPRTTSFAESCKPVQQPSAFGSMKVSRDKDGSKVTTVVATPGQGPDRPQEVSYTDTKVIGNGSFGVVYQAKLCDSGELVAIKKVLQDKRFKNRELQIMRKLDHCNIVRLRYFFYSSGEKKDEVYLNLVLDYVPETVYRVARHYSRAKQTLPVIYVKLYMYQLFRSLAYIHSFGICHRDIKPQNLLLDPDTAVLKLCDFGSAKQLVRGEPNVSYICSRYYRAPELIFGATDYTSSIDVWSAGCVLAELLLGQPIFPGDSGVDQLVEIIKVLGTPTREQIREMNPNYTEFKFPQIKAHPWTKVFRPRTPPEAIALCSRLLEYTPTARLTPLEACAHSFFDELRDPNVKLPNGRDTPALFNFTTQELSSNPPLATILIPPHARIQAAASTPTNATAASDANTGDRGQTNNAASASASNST
T1 sequence (O75116 whole entry): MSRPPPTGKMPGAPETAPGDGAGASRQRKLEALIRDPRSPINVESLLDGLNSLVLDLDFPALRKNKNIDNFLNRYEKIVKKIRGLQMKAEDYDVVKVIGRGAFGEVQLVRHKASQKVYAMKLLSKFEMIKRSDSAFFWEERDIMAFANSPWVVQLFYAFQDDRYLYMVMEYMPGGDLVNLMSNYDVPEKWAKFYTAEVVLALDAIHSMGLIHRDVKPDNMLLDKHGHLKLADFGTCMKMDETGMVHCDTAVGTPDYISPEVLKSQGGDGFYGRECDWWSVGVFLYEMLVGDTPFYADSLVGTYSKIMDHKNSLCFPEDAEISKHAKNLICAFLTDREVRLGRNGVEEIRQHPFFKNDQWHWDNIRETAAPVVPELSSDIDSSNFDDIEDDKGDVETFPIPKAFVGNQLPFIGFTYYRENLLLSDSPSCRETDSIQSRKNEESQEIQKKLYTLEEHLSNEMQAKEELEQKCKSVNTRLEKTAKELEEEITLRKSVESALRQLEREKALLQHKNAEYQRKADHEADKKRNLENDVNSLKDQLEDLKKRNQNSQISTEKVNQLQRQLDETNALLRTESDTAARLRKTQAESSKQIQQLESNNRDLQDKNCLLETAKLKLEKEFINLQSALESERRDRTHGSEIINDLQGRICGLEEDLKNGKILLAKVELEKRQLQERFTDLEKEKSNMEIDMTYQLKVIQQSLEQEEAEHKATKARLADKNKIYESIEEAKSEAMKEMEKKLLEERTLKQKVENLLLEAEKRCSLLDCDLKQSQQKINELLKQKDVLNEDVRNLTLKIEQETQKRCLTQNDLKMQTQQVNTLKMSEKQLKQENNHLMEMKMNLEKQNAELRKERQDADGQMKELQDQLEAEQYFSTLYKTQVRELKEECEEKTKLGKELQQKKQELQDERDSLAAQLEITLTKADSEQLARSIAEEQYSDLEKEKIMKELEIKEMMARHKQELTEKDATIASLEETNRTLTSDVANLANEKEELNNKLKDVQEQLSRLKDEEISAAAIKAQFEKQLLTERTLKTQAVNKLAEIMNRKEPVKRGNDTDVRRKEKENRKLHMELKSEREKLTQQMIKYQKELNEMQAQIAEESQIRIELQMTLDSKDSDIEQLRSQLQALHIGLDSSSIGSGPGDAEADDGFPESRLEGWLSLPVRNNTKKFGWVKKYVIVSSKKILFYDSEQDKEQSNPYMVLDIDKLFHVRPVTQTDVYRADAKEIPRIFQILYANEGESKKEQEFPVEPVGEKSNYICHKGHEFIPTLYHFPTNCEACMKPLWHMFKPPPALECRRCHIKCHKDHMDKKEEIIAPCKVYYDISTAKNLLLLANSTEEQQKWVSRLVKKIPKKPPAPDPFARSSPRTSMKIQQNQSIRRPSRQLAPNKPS

The term pIC50 denotes −log10 of the IC50, conventionally taken in molar units. As to `CCCCCCCCNN[C@H]1CC[C@H](C(=O)Nc2ccncc2)CC1.Cl.Cl` [BA-1037, trans-4-[N′-(Octyl)hydrazino]-N-(4′″-pyridyl)cyclohexane Carboxamide Dihydrochloride], the “activity towards GSKB (FIG. 10)” value in assay [1] is “can exert activity”. The “cell proliferation, highest dose tested” value in assay [2] is recorded as “significantly blocked cell proliferation; also recorded: completely block proliferation”. The pIC50 in assay [3] was 5.19. Also, in assay [4], the “neurite growth by bioassay, normalized to BA-1016 (FIG. 7)” value is “equally well as BA-1016”. Further, in assay [5] (1 uM, 10 uM and 100 uM, versus DMSO and PBS controls, Dihydrochloride), the “cell proliferation, all three doses” value was “significantly blocked cell proliferation; also recorded: reduce cell proliferation”. In addition, the “cell proliferation, highest concentration tested” value in assay [5] (100 uM) is reported as “complete arrest of cell proliferation”.

For the origin of these results see patent US20040138272A1, “1,4-Substituted cyclohexane derivatives” (priority 2002, published 2004).
